The source of these data is patent publication US20120214843A1, “Combination Treatment of Hydroxpyridonate Actinide/Lanthanide Decorporation Agents” (priority 2009, published 2012).

Structures are written as SMILES.

Series [1] is described as follows: Actinide decorporation in mice after iv 241Am(III) injection, single or combined HOPO ligands. The class given is in vivo, Swiss-Weber mice. Particulars: ligand injected ip at 24 h. As for the experimental part: (§1) Ligand Combination. […] Tetradentate 5-LIO(Me-3,2-HOPO), HOPO (2), is structurally suitable for chelating Np(V) and U(VI). Treatment is likely to be delayed in human contamination with dispersed radionuclides. Those conditions were approached, using mice, by ligand injection ip at 24 h or oral administration at 1 or 24 h after an iv actinide injection. Dosages of (1) and (2) were, respectively, 30 and 100 μmolkg^−1 ip and 100 and 200 μmolkg^−1 oral. Because mixtures of radionuclides may be released, (1) and (2) were combined to take advantage of their differing efficacies for the actinides. Dosages of combined (1) and (2) were, respectively, 30 plus […] injected ip and […] oral. Actinides in all mouse tissues and excreta were determined using published methods.
(§2) Tetradentate 5-LIO(Me-3,2-HOPO), HOPO (2), is structurally suitable for chelating Np(V) and U(VI). Treatment is likely to be delayed in human contamination with dispersed radionuclides. Those conditions were approached, using mice, by ligand injection ip at 24 h or oral administration at 1 or 24 h after an iv actinide injection. Dosages of (1) and (2) were, respectively, 30 and 100 μmolkg-1 ip and 100 and 200 μmolkg-1 oral. […] Actinides in all mouse tissues and excreta were determined using published methods. […]

Series [2] in a line: In vivo actinide chelation and removal compared with CaNa3-DTPA. Also on record: species or system mice. The source says: (§3) In vivo Efficacy. […] For example, the efficiency of 3,4,3-LI-1,2-HOPO for clearing circulating Pu from mouse tissues ranges from 100 times (skeleton) to 240 times (soft tissues) that of CaNa3-DTPA in five different protocols. In addition, the optimal activity dose of 3,4,3-LI-1,2-HOPO for removing newly deposited Pu from mice is 2.5% of the dose of CaNa3-DTPA used clinically. The tetradentate 5-LIO-Me-3,2-HOPO has potential therapeutic value for Pu, U, Am and Np, and its efficiency for clearing circulating Pu from mouse tissues ranges from 5 times (skeleton) to 15 times (liver) that of CaNa3-DTPA.
(§4) Oral Activity. Both compounds are orally active actinide chelators: when administered orally to mice or beagles after a Pu injection, 3,4,3-LI-1,2-HOPO and 5-LIO-Me-3,2-HOPO can remove up to 80% and 60%, respectively, of the injected Pu.

The nature of series [3]: Oral removal of injected Pu. The class given is in vivo. Particulars: administered orally to mice or beagles after a Pu injection.
Source text: as §4

A short description of series [4]: Pharmacokinetic studies using 14C-labeled ligands. The class given is in vivo.
Series [5] is described as follows: Clearing Pu from mouse tissues relative to CaNa3-DTPA. The series is classed as in vivo.
Source text: as §3

A short description of series [6]: Actinide decorporation in mice after iv 238Pu(IV) injection, single or combined HOPO ligands. The class given is in vivo, Swiss-Weber mice. Particulars: ligand injected ip at 24 h. As for the experimental part:
as §1, §2

A short description of series [7]: Actinide decorporation in mice, all actinides and protocols, comparison of treatments. Also on record: species or system Swiss-Weber mice. Particulars: mouse. The protocol: as §1, §2
Series [8] in a line: Actinide decorporation in mice after iv 233U(VI) injection, single or combined HOPO ligands. The series is classed as in vivo, Swiss-Weber mice. The protocol: as §1
(§5) Tetradentate 5-LIO(Me-3,2-HOPO), HOPO (2), is structurally suitable for chelating Np(V) and U(VI). Treatment is likely to be delayed in human contamination with dispersed radionuclides. Those conditions were approached, using mice, by ligand injection ip at 24 h or oral administration at 1 or 24 h after an iv actinide injection. Dosages of (1) and (2) were, respectively, 30 and 100 μmolkg-1 ip and 100 and 200 μmolkg-1 oral. Because mixtures of radionuclides may be released, (1) and (2) were combined to take advantage of their differing efficacies for the actinides. Dosages of combined (1) and (2) were, respectively, 30 plus 100 μmolkg-1 injected ip and 100 and 200 μmolkg-1 oral. Actinides in all mouse tissues and excreta were determined using published methods.
(§6) Objective: to assay the efficacy of the two ligands at promoting radionuclide excretion with prompt or delayed administration, as single or combined treatments, and to identify target organs and excretion pathways. The test system used Swiss-Weber mice (˜35 g). Actinide loading involves intravenous injection of An-citrate complex at t0. Samples of later taken of the whole skeleton, liver, kidneys, bulk soft tissues, urine, and feces (Σ=100%). (See Table 1.)

Series [9] is described as follows: Actinide decorporation in mice after iv 237Np(V) injection, single or combined HOPO ligands. The class given is in vivo, Swiss-Weber mice. As for the experimental part:
as §1, §5, §6

For the compound `O=C(NCCCN(CCCCN(CCCNC(=O)c1cccc(=O)n1O)C(=O)c1cccc(=O)n1O)C(=O)c1cccc(=O)n1O)c1cccc(=O)n1O` [3,4,3-LI(1,2-HOPO)], the “reduction of liver and skeleton actinide, Am(III)” value in [1] is “appreciable and significant reductions”. In addition, the “removing newly deposited Pu, Np, Am and U from mice, compared with CaNa3-DTPA” value in [2] is recorded as “significantly more effective”. Further, the “Pu, Np, Th, Am and Cf chelation in vivo” value in series [2] (mouse, in vivo) is “highly effective”. Besides, in series [3], the “injected Pu removed” value is recorded as “up to 80%”. For the same compound, in series [4], the “stability to metabolic degradation” value is “stable to metabolic degradation”. Moreover, the “optimal activity dose for removing newly deposited Pu from mice” value in [5] (mice) is reported as 2.5 % of the dose of CaNa3-DTPA used clinically. In [5], the “efficiency for clearing circulating Pu from mouse tissues, skeleton” value is 100 times that of CaNa3-DTPA. The “efficiency for clearing circulating Pu from mouse tissues, soft tissues” value in series [5] (soft tissues, five different protocols) is listed as 240 times that of CaNa3-DTPA. Also, the “reduction of liver and skeleton actinide, Pu(IV)” value in series [6] is “appreciable and significant reductions”. For the same compound, in series [7], the “in vivo chelation of Pu(IV) and Am(III)” value is reported as “highly effective”.

Regarding `Cn1ccc(C(=O)NCCOCCNC(=O)c2ccn(C)c(=O)c2O)c(O)c1=O` [5-LIO(Me-3,2-HOPO)], the “removing newly deposited Pu, Np, Am and U from mice, compared with CaNa3-DTPA” value in series [2] is “significantly more effective”. Moreover, the “U(VI) excretion” value in series [8] (ligand given orally at 1 h) is on record as “about 115 % control”; in [8] (ligand injected ip at 24 h) it was “about 3 times control”. Further, the “kidney U(VI)” value in series [8] (ligand given orally at 1 h) was determined as 50 % control; in series [8] (ligand injected ip at 24 h), 45 % control; in [8] (oral treatment at 24 h), 70 % control. Moreover, the “Np(V) excretion” value is “about 115 % control” in series [9] (ligand given orally at 1 h) and “about 3 times control” in [9] (ligand injected ip at 24 h). Besides, the “liver Np(V)” value in [9] (ligand given orally at 1 h) stood at 25 % control; in series [9] (ligand injected ip at 24 h), 30 % control; in series [9] (oral treatment at 24 h), 50 % control. In [3], the “injected Pu removed” value was at most 60%. Also, the “stability to metabolic degradation” value in series [4] is given as “stable to metabolic degradation”. Also, the “efficiency for clearing circulating Pu from mouse tissues, liver” value in series [5] (liver) is recorded as 15 times that of CaNa3-DTPA. For the same compound, the “efficiency for clearing circulating Pu from mouse tissues, skeleton” value in [5] is recorded as 5 times that of CaNa3-DTPA.
